Columns and labels:
Experiment in all cases: relative viability (nuclei count vs DMSO), 5 days (fraction); higher = more cells survive
IU1-47 + Pemetrexed = compound: CC1=CC(=C(N1C2=CC=C(C=C2)Cl)C)C(=O)CN3CCCCC3 [IU1-47] + Nc1nc2[nH]cc(CCc3ccc(C(=O)N[C@@H](CCC(=O)O)C(=O)O)cc3)c2c(=O)[nH]1 [Pemetrexed] (partner 0.2 µM)
Method in brief: (§1)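 For relative viability, nuclei counts in treated wells were divided by those in vehicle wells. Lung cancer cell lines had been pin-tool dosed in 1536-well plates the day after seeding and cultured for 5 days, then fixed and stained in one step (final 0.05% Triton X-100, 1% formaldehyde, 1 ug/ml Hoechst) and imaged at 4×. Doses were one drug alone or a fixed anchor-drug dose plus five library-drug doses (not always all listed) in √10 steps, and values are duplicate-plate medians.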

IU1-47 + OSI-027 = compound: CC1=CC(=C(N1C2=CC=C(C=C2)Cl)C)C(=O)CN3CCCCC3 [IU1-47] + COc1cccc2cc(-c3nc([C@H]4CC[C@H](C(=O)O)CC4)n4ncnc(N)c34)[nH]c12 [OSI-027] (partner 0.5 µM)
Method in brief: as §1

IU1-47 + Vorinostat = compound: CC1=CC(=C(N1C2=CC=C(C=C2)Cl)C)C(=O)CN3CCCCC3 [IU1-47] + O=C(CCCCCCC(=O)Nc1ccccc1)NO [Vorinostat] (partner 1 µM)
Method in brief: as §1

IU1-47 + Lapatinib = compound: CC1=CC(=C(N1C2=CC=C(C=C2)Cl)C)C(=O)CN3CCCCC3 [IU1-47] + CS(=O)(=O)CCNCc1ccc(-c2ccc3ncnc(Nc4ccc(OCc5cccc(F)c5)c(Cl)c4)c3c2)o1 [Lapatinib] (partner 2 µM)
Method in brief: as §1

## UMC-11
IU1-47 + Pemetrexed; first compound 0.08 µM
  relative viability: 0.777
IU1-47 + Pemetrexed; first compound 0.253 µM
  relative viability: 0.716
IU1-47 + Pemetrexed; first compound 0.8 µM
  relative viability: 0.811
IU1-47 + Pemetrexed; first compound 2.53 µM
  relative viability: 0.903
IU1-47 + Pemetrexed; first compound 8 µM
  relative viability: 0.796
IU1-47 + OSI-027; first compound 0.08 µM
  relative viability: 0.498
IU1-47 + OSI-027; first compound 0.253 µM
  relative viability: 0.43
IU1-47 + OSI-027; first compound 0.8 µM
  relative viability: 0.523
IU1-47 + OSI-027; first compound 2.53 µM
  relative viability: 0.611
IU1-47 + OSI-027; first compound 8 µM
  relative viability: 0.465
IU1-47 + Vorinostat; first compound 0.08 µM
  relative viability: 0.409
IU1-47 + Vorinostat; first compound 0.253 µM
  relative viability: 0.408
IU1-47 + Vorinostat; first compound 0.8 µM
  relative viability: 0.374
IU1-47 + Vorinostat; first compound 2.53 µM
  relative viability: 0.413
IU1-47 + Vorinostat; first compound 8 µM
  relative viability: 0.377
IU1-47 + Lapatinib; first compound 0.08 µM
  relative viability: 0.887
IU1-47 + Lapatinib; first compound 0.253 µM
  relative viability: 0.877
IU1-47 + Lapatinib; first compound 0.8 µM
  relative viability: 1.03
IU1-47 + Lapatinib; first compound 2.53 µM
  relative viability: 1.24
IU1-47 + Lapatinib; first compound 8 µM
  relative viability: 0.876

From the supplement of paper PMC10307832
